Common to all, as to assay type: biochemical
The target of experiment [1] is T1, bovine pancreatic α-chymotrypsin (CYT) (Bos taurus, UniProt P00766).
T1 construct: purchased Sigma Inc; host or cells: bovine pancreas (by its name)
Put plainly: CYT inhibitory activity. Conditions: CYT 3.4 nM, substrate 0.273 mM, pH 8.0. How it is done: (§1) Inhibotory activities of the oxadinone derivative of the present invention against human leukocyte elastase (HLE), human sputum elastase (HSE), human cathepsin G (HCG), bovine pancreatic α-chymotrypsin (CYT) and bovine pancreatic trypsin (TRY) were measured as follows:
(4) Measurement of CYT Inhibitory Activity
(§2) a) Enzyme Preparing Method Bought from Sigma Inc.
Employed was a measuring method similar to that described previously in conjunction with the measurement of the HLE inhibiting activity, except that used was a buffer solution of pH 8.0. The final concentrations of CYT and the synthetic substrate (Ac-Ala-Ala-Pro-Phe-pNA; FUNAKOSHI) in the solution of the enzyme reaction were 3.4 nM and 0.273 mM, respectively.

Experiment [2] addresses T2, bovine pancreatic trypsin (TRY) (Bos taurus, UniProt P00760).
T2 construct: purchased Sigma Inc; host or cells: bovine pancreas (by its name)
T2 sequence (P00760 24-246): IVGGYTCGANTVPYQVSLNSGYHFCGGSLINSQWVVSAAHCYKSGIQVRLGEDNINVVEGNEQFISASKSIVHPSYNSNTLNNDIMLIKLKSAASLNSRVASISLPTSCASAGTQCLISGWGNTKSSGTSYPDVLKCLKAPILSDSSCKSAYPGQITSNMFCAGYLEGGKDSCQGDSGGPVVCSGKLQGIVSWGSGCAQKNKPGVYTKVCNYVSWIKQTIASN
Put plainly: TRY inhibitory activity. To be noted: TRY 25 nM, substrate 1.0 mM, pH 7.5. How it is done:
as §1
(5) Measurement of TRY Inhibitory Activity
as §2
Employed was a measuring method similar to that described previously in conjunction with the measurement of the HLE inhibiting activity, except that used was a buffer solution of pH 7.5. The final concentrations of TRY and the synthetic substrate (Z-Arg-pNA; FUNAKOSHI) in the solution of the enzyme reaction were 25 nM and 1.0 mM, respectively.

A further experiment deals with T3, human cathepsin G (HCG) (Homo sapiens, UniProt P08311).
T3 construct: purchased Cosmo Bio Inc
T3 sequence (P08311 21-255): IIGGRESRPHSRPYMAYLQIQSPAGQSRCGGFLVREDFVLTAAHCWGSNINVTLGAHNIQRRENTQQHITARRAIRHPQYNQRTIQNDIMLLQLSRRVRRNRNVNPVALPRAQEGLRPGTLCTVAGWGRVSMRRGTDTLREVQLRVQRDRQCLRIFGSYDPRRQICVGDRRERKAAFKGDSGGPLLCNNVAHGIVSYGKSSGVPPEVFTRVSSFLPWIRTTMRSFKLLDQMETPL
Put plainly: HCG inhibitory activity. To be noted: HCG 50 nM, substrate 0.5 mM, pH 7.5. As to the method: as §1
(3) Measurement of HCG Inhibitory Activity
a) Enzyme Preparing Method Bought from Cosmo Bio Inc.
Employed was a measuring method similar to that described previously in conjunction with the measurement of the HLE inhibiting activity, except that used was a buffer solution of pH 7.5. The final concentrations of HCG and the synthetic substrate (Ac-Ala-Ala-Pro-Phe-pNA; FUNAKOSHI) in the solution of the enzyme reaction were 50 nM and 0.5 mM, respectively.

Experiment [3] concerns the target T4, human sputum elastase (HSE) (Homo sapiens, UniProt P08246).
T4 construct: purchased Sigma Inc; host or cells: human sputum (by its name)
T4 sequence (P08246 30-247 limits assumed): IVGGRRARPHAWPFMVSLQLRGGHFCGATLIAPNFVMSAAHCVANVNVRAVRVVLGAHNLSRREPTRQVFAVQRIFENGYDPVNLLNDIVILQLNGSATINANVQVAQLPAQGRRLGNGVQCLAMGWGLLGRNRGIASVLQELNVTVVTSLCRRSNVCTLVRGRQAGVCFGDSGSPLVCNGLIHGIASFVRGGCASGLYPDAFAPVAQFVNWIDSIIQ
Put plainly: HSE inhibitory activity. To be noted: HSE 10 nM, substrate 0.25 mM, pH 7.0. As to the method: as §1
(2) Measurement of HSE Inhibiting Activity
as §2
Employed was a measuring method similar to that described previously in conjunction with the measurement of the HLE inhibitory activity, except that used was a buffer solution of pH 7.0. The final concentrations of HSE and the synthetic substrate (MeOSuc-Ala-Ala-Pro-Phe-pNA; FUNAKOSHI) in the solution of the enzyme reaction were 10 nM and 0.25 mM, respectively.

From patent US5332734A, “Oxazinone derivative” (Japan Tobacco, Incorporated, priority 1991, dated 1994) come the findings set out here.

As usually defined, the IC50 is the point on the concentration scale where inhibition reaches its midpoint. Higher therefore signals lower potency.

`Cc1cccc2nc([C@@H](NC(=O)OCC3c4ccccc4-c4ccccc43)C(C)C)oc(=O)c12` [Compound 1, 2-{1(S)-[(9-fluorenylmethoxycarbonyl)amino]-2-methylpropyl}-5-methyl-4H-3,1-benzoxazin-4-one]: the IC50 was 4.75 µM in experiment [1], more than 6.89 µM in experiment [2], more than 5.5 µM against human cathepsin G (HCG) and 0.31 µM in experiment [3].

For the molecule `Cc1cccc2nc([C@H](CC(C)C)NC(=O)OCC3c4ccccc4-c4ccccc43)oc(=O)c12` [Compound 2, 2-{1(S)-[(9-fluorenylmethoxycarbonyl)amino]-3-methylbutyl}-5-methyl-4H-3,1-benzoxazin-4-one], the IC50 in experiment [1] was 4.46 µM; in experiment [2] it was more than 6.68 µM; against human cathepsin G (HCG), more than 5.34 µM; in experiment [3], 0.3 µM.
